# Experimental data published in US10858406B2 (priority 2014, dated 2020).
# Tested on: potassium ion channel current of the DRG neurons
# Type: cell-based, SD rats
# Settings: 5 mM
smiles,measurement,value
"Nc1ccncc1 [4AP, 4-aminopyridine]",Current inhibition rate,0.338
same,Current recorded after loading,0.9766 nA
